# Reference: US5512434A (priority 1992, dated 1996)
# What was measured:
# [1] = biological target: T1, human phosphatase VHR, wild type, SEQ ID NO:2 (Homo sapiens, UniProt P51452); format: biochemical
# T1 construct: fragment containing the entire VHR coding region; glutathione-S-transferase (GST), pGEX-KT (N, cleaved yes); made in house
# Experimental: (§1) Production and purification of bacterially-expressed VHR. A 0.8 kB SalI-HinDIII fragment containing the entire VHR coding region was blunt-ended with DNA polymerase (Klenow fragment), and BamHI linkers were added. DNA was digested with BamHI, and inserted in-frame into the BamHI site of the pGEX-KT expression vector, described in Hakes et al., Anal. Biochem. 202:293-298 (1992), to produce pGEX-VHR. Plasmid pGEX-VHR was used to express VHR as a fusion protein with glutathione-S-transferase (GST). Expression and purification of GST-VHR was performed as described for a rat brain PTP. Guan et al. (Anal. Biochem. 1991). […] VHR protein, obtained by thrombin cleavage of the purified GST fusion protein, was used for phosphatase assays.
# (§2) Phosphatase assays with purified VHR. Dephosphorylation of p-nitrophenylphosphate (pNPP) was performed as described previously. Tonks et al., J. Biol. Chem. 263:6731-6737 (1988).
# (§3) Fischer et al. (1991); Hunter et al. (1989).
# [2] = biological target: human phosphatase VHR as GST-VHR fusion protein (glutathione-S-transferase fusion, VHR SEQ ID NO:2) (Homo sapiens, UniProt P51452); settings: hydrolysis of pNPP, absorbance at 410 nm
# Experimental: as §1, §2, §3
# [3] = biological target: highly purified PDGF receptor (baculovirus-expressed)
# [4] = biological target: human phosphatase VHR (clone 27 lysate, pCEV27) (Homo sapiens, UniProt P51452); settings: 3 mM sodium vanadate, 37 C, 30 minutes
# Sequence of human phosphatase VHR (clone 27 lysate, pCEV27) (P51452 whole entry): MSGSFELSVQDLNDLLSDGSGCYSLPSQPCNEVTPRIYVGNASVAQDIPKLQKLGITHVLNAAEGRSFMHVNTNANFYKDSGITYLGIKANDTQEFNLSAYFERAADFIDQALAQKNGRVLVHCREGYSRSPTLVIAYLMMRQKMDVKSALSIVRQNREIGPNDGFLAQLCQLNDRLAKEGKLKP
# Experimental: Phosphatase assays with bacterial extracts. […] Cultures of E. coli strain Y1091 (50 ml), carrying either pCEV-bek, pCEV-lacZ (pCEV-lacZ vector without an insert), or pCEV27 were grown and induced with 1 mM IPTG as described. […] Cells were collected by centrifugation and lysed in 1 ml of buffer containing 50 mM HEPES, pH 7.4, 1% Triton X-100, and 1 mM phenylmethylsulfonyl fluoride. Lysates were sonicated twice for ten seconds each, clarified by centrifugation, and the supernatants were tested for phosphatase activity.
# The reaction was stopped by boiling in sodium dodecyl sulfate polyacrylamide gel electrophoresis (SDS-PAGE) sample buffer, described by Laemmli, Nature 227:680-685 (1970), for three minutes. The Sample was divided into two equal aliquots, resolved by 6.5% SDS-PAGE, and transferred to Immobilon (Milipore).
# Immunoblotting was performed with monoclonal anti-pTyr (Upstate Biotechnology, Inc.) or monoclonal anti-β-gal antibodies (Promega) as described previously.
# T1 sequence (P51452 whole entry, the tested form may be a part): as the sequence (P51452 whole entry) above
# Sequence of human phosphatase VHR as GST-VHR fusion protein (glutathione-S-transferase fusion, VHR SEQ ID NO:2) (P51452 whole entry, the tested form may be a part): as the sequence (P51452 whole entry) above
compound,measurement,setting,value
C=C1[C@@H](O)[C@@H]2O[C@]3(CC[C@H](/C=C/[C@@H](C)[C@@H]4CC(C)=C[C@@]5(O[C@H](C[C@@](C)(O)C(=O)O)CC[C@H]5O)O4)O3)CC[C@H]2O[C@@H]1[C@@H](O)C[C@H](C)[C@H]1O[C@@]2(CCCCO2)CC[C@H]1C [Okadaic acid],inhibitory effect on the enzyme activity (pNPP hydrolysis),[1],no inhibitory effect
"O=[N+]([O-])c1ccc(OP(=O)(O)O)cc1 [pNPP, p-nitrophenylphosphate]",Km (pNPP),[2],in the micromolar range
same,Km (pNPP) after cleavage of the VHR from GST with thrombin,"[1]; compared with GST-VHR fusion, data not shown",unchanged
[F-].[Na+] [sodium fluoride],inhibitory effect on the enzyme activity (pNPP hydrolysis),[1],no inhibitory effect
VHR (enzyme),"Km of dephosphorylation (anti-pTyr/[125I]-protein A immunoblot, PhosphorImager)",[3],< 100 mM
sodium vanadate,inhibition of pNPP hydrolysis by the phosphatase,[1],completely inhibited
same,inhibition of the reduction of pTyr content of beta-gal-bek by clone 27 lysate,[4],inhibited
